The values that follow come from PubChem BioAssay AID624382 (Sanford-Burnham Center for Chemical Genomics, 2012).

This experiment deals with Small ubiquitin-related modifier 1 (Homo sapiens) (UniProt P63165). Nature of the experiment: SUMO1 protein interaction blockers, potency – biochemical, fluorescence polarization, uHTS hits, dose response (AID 624382). Conditions: SUMO1 peptide binding. (In general: Fluorescence polarisation rises when a labelled molecule tumbles more slowly, as on binding a larger partner.)
Sequence of Small ubiquitin-related modifier 1 (Homo sapiens) (P63165 whole entry, looked up): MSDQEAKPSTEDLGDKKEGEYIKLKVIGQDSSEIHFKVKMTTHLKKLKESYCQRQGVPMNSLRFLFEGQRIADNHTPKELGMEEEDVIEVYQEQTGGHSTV

Calls of active or inactive are those of the source. How the calls were made is not given here.

Consider `C=Cc1c(C)c2cc3[nH]c(cc4nc(cc5nc(cc1[nH]2)C(C)=C5CCC(=O)O)C(CCC(=O)O)=C4C)c(C)c3C=C`, for which the IC50 (usually the concentration at which inhibition is half-maximal) was > 66.6 µM (inactive).

As to `C[c-]1[c-](C)[c-](C)[c-](C)[c-]1C.[Fe].c1cc2nccc(N3CCCC3)[c-]2c1` (stereo not drawn), the IC50 was 11.9 µM. To `CCN(CC)P(=O)(NC(=O)C(Cl)(Cl)Cl)N(CC)CC.[Cl-].[Cl-].[Cl-].[Nd+3]` belongs > 66.6 µM (inactive).
